In US9278982B2, “Targeting human thymidylate kinase induces DNA repair toxicity in malignant tumor cells” (NATIONAL YANG-MING UNIVERSITY, priority 2010, dated 2016):

Columns and labels:
[1] = target: T1, TMPK (Homo sapiens, UniProt P23919); test: Luciferase-coupled TMPK assay; type: biochemical; set-up: GST (N, cleaved yes); made in house; host or cells: E. coli JM109 (pGEX-2T-hTMPK); conditions: purified hTMPK protein (0.5 μg), 10 min preincubation; read-out: IC50 against hTMPK
T1 sequence (P23919 1-212): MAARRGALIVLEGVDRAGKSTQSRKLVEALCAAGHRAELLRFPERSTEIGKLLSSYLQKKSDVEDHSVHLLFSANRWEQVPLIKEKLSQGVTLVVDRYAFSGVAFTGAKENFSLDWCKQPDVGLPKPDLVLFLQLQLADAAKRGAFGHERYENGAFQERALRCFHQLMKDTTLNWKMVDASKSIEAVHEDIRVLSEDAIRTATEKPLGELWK
Method: FIG. 12. Identification of a novel hTMPK inhibitor. (A) A screen of TMPK inhibitor by luciferase-coupled assay. (B) The chemical structures of YMU1 (compound 21) and related molecules. (C) Effect of YMU1 and derivative compounds on hTMPK inhibition using purified hTMPK protein (0.5 μg) with 10 min preincubation prior to reaction using luciferase-coupled TMPK analysis. (D) Effect of YMU1 on activity of purified TMPK (0.5 μg) and GST-hTK1 protein (5 μg) with 10 min preincubation prior to reaction. Data represent mean±s.d. (n=4) (E) Molecular models of the TMPK-YMU1 complex. Left panel: TMPK/ATP/Mg+2; right panel: TMPK/YMU1. The TMPK is represented in surface electrostatic potential (upper) and structural ribbon (lower). ATP and YMU1 are shown in green and blue stick, respectively, with colored atom (O, red; S, yellow; P, orange). TMP is shown in white backbone and Mg+2 in purple. Arrow indicates the position of Asp15.
Based on the functional requirement of TMPK in DNA repair specifically in tumor cells with elevated level of R2 expression, we searched for inhibitors of hTMPK that might be useful in selectively sensitizing tumor cells to doxorubicin. […] The synthetic procedure and structural elucidation of YMU1 (compound 21) are described in the Methods of the Invention section of the application.
The TMPK reaction was started by adding purified hTMPK in 50 μl of TMPK assay buffer (100 mM Tris-HCl, pH 7.5, 100 mM KCl, 10 mM MgCl2, 50 μM ATP and 100 μM dTMP) in 96 wells plate at 25° C. for 10 min and terminated by adding 200 μl of DTNB (100 μM), followed by transferring 10 μl of reaction solution to a white 96-wellplate containing 90 μl of luciferase assay buffer (50 mM Glycine, 0.5 mM EDTA and 5 mM EDTA, pH 7.0, 0.1 μg of luciferase, 50 μM luciferin and 0.1% BSA). The luminescence was measured with a luminescence counter (Packard).

[2] = target: T1, TMPK; test: In vitro TMPK inhibitory activity of TMPK inhibitor derivatives (inhibition yield); type: biochemical; set-up: GST (N, cleaved yes); made in house; host or cells: E. coli JM109 (pGEX-2T-hTMPK), inferred; conditions: 2 μM; n=3 or 6; read-out: inhibition yield, normalized to compound 21 (YMU1) = 100%
Source text: Chemical structures of the different TMPK inhibitor derivatives tested for in vitro TMPK inhibitory activity and in vivo doxorubicin sensitization activity (in MDA-MB231 cells) are depicted below.

[3] = test system: HCT-116 p53−/− cells; test: Whole-cell dTTP extraction and quantification; type: cell-based, human
Method: FIG. 13. Effect of YMU1 on cellular dTTP level. HCT-116 p53−/− cells were transfected with or without TMPK siRNA for 2 days and treated with vehicle or YMU1. After 72 h, cells were harvested for Western blot analysis and dNTP level determination (mean±s.d., n=3; **, P<0.01 based on a two-tailed Student's t-test).
The investigators performed additional experiments to determine the effect of YMU1 treatment on cellular dTTP levels. YMU1 treatment in cells reduced dTTP pool about 30-40% after treatment with YMU1 for 3 days (FIG. 13). Transfection of these cells with siRNA to knock-down TMPK expression reduced the dTTP pool size in a similar magnitude.
10^6 cells were extracted with 1 ml of ice-cold 60% methanol at −20° C. overnight, followed by centrifugation for 30 min at 16,000×g. The supernatant was immersed at 100° C. in dry bath for 3 min and dried under vacuum. The dry residue was dissolved in 80 μl of nuclease free water and used for cellular dNTP measurement according to the method described by Ferraro et al. (Ferraro et al., 2010).

[4] = test system: H184B5F5/M10, MCF-10A, MCF-7 and HCT-116 p53−/− cells
Method: (B) H184B5F5/M10 cells were seeded onto 100 mm-dish at 5,000 cells/dish. MCF-10A, MCF-7 and HCT-116 p53^−/− cells were seeded onto 6 well plate at 600 cells/well. Following overnight culture, cells were treated with various concentration of YMU1 or FdUrd thrice a week. After 14 days colonies were fixed, stained by crystal violet.
We also compared the effect of YMU1 and FdUrd on cell viability of non-tumorigenic mammary cycling cells, H184B5F5/M10 and MCF-10A and tumor lines, MCF-7 and HCT-116 p53^−/− cells.
After 14 days, colonies were fixed and stained by crystal violet and counted.

[5] = target: T2, dUTPase (Homo sapiens, UniProt P33316); test: dUTPase activity assay; type: biochemical; conditions: 0.1 μg purified GST-dUTPase, 10 min incubation with YMU1
T2 construct: made in house; host or cells: E. coli JM109 (pGEX-2T-dUTPase (WT))
Method: FIG. 19. No effect of YMU1 on dUTPase activity. 0.1 μg of purified GST-dUTPase protein was incubated with the indicated concentration of YMU1 for 10 min prior to action using dUTPase activity analysis.
For detecting dUTPase activity, the EnzChek Pyrophosphate Assay kit (Invitrogen) was used for measuring the dUTPase activity following the manufacturer's instruction. […] Reaction mixtures were incubated at 37° C. for 3 minutes. Samples (15 μl each) were added to the reaction mixtures [715 μl dH2O, 50 μl 20× reaction buffer, 200 μl MESG substrate, 1 U purine nucleoside phosphorylase, 0.03 U inorganic pyrophosphatase] and incubated at 22° C. for 45 minutes. The absorbance at 360 nm was measured using an ELISA plate reader.

T2 sequence (P33316 1-164 isoform P33316-2): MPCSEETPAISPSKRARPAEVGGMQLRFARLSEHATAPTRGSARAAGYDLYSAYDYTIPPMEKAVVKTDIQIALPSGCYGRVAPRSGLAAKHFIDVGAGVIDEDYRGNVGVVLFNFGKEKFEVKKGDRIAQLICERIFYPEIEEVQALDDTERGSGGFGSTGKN

With `CCOC(=O)N1CCN(C(=O)Cn2sc3nc(C)cc(C)c3c2=O)CC1` [compound 21, Ethyl 4-(2-(4,6-dimethyl-3-oxoisothiazolo[5,4-b]pyridin-2(3H)-yl)acetyl) piperazine-1-carboxylate] the IC50 [1] was 610 ± 20 nM, the inhibition at 2 µM [2] was 100% and the “further reduction of dTTP pool in TMPK knockdown cells” value ([3]; cells transfected with TMPK siRNA, then YMU1) was “did not cause a further reduction”. The “reduction of dTTP pool” value ([3]; treatment with YMU1 for 3 days) was 30-40%, the “death of cells in colony assay” value [4] was “did not” and the “inhibition of dUTPase” value [5] was “unable to inhibit dUTPase”.
